# Measured values from US20040014683A1, “Sugar-derived gellant for hydrogel formation” (priority 2001, published 2004).
# Assay: Gel-forming ability test (heat to dissolve, cool to 25° C.)
# Type: physicochemical
# Conditions: 1 mg gelatinizer in water (900 mg) and methanol (100 mg); heated, gradually cooled, left at room temperature approximately 2-5 hours; tube inverted
# Protocol: The dodecanoylaminophenol-β-D-glucopyranoside and dodecanoylaminophenol-β-D-galactopyranoside (1 mg of each) obtained in the above experiments were respectively weighed out into test tubes, and a mixed solvent of water (900 mg) and methanol (100 mg) was added. The mixture was heated to ensure complete dissolution. Subsequently, it was gradually cooled, and left at room temperature for approximately 2-5 hours.
# The gel-forming ability was evaluated as follows.
# The solvent was water (including a small amount of methanol and ethanol), methanol, ethanol, 1-butanol, t-butanol, tetrahydrofuran, chloroform, dichloromethane, n-hexane, ethyl acetate, dimethylformamide or dimethyl sulfoxide.
# One of the aforesaid solvents was mixed in a test tube wherein the two types of gelatinizer prepared in the Examples were sealed such that the concentration of gelatinizer was 0.1-3.0 wt %, and this mixture was heated until the solids dissolved. The resulting solution was cooled to 25° C. for one hour. The gelatinizer and solvent were introduced into a test tube capped by a diaphragm, and heated in the oil bath until the solids dissolved. This solution was cooled to 25° C.
row,Substance,hydrated gel formation
1,dodecanoylaminophenol-β-D-galactopyranoside,hydrated gel which did not collapse even when inverted
2,dodecanoylaminophenol-β-D-glucopyranoside,hydrated gel which did not collapse even when inverted
